Key:
[1] = Leaching test of cured plaques in artificial saliva (Ringer solution), UV/Vis spectroscopy; assay type: physicochemical
Experimental: These plaques were light-cured and stored in artificial saliva (Ringer solution) for 20 days at 37° C. By UV/Vis spectroscopy, no triclosan could be found in the artificial saliva.
Again, plaques were made from a mixture of the varnish components except for the solvent ethanol. These plaques were light-cured and stored in artificial saliva (Ringer solution) for 14 days at 37° C. By UV/Vis spectroscopy, some triclosan could be found in the artificial saliva.

bacteria = conditions: long-term experiments; cited from earlier work

Q: For `Oc1cc(Cl)ccc1Oc1ccc(Cl)cc1Cl` [triclosan, 2,4,4′-trichloro-2′-hydroxydiphenyl ether], which “triclosan embedded in the plaque leached out” value ([1]; plaque with 6.25 wt % triclosan based on resin mixture, 20 days at 37° C.) is on record?
A: less than 0.1 wt %

Q: What about the “leaching of the overall triclosan content of the plaque” value ([1]; plaque with 40 wt % triclosan, 14 days at 37° C.) of the same molecule?
A: 0.2 wt %

Q: And the “development of bacterial resistance” value (bacteria)?
A: no development of bacterial resistance

Source: US20010009931A1, “Protective varnish for dentin” (priority 1997, published 2001)
